The values that follow come from US12077503B2, “Substituted cyclic amides and their use as herbicides” (FMC CORPORATION, priority 2015, dated 2024).

What all share (format): in vivo
Test [1] concerns blackgrass (Alopecurus myosuroides). As to the kind of experiment: Test A postemergence. Conditions: Alopecurus myosuroides, post-emergence, 240 h, 125 g ai/ha, postemergence; visual injury after approximately 10 d; 0 to 100 scale (0 no effect, 100 complete control); read-out: Plant response rating, Blackgrass. Put shortly: (§1)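 Ratings of 0 (no effect) to 100 (complete control) come from visual comparison with untreated controls roughly 10 d after treatment. Test chemicals, formulated in a non-phytotoxic solvent mixture with surfactant, were applied either as a preemergence directed soil spray on seeded soil or postemergence to one- to two-leaf plants 2 to 10 cm tall.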

Test [2] relates to Galium (catchweed bedstraw, Galium aparine). As to the kind of experiment: Test A postemergence. The note with it: Galium, post-emergence, 240 h, 125 g ai/ha, postemergence; visual injury after approximately 10 d; 0 to 100 scale (0 no effect, 100 complete control); read-out: Plant response rating, Galium. Put shortly: as §1
Test [3] concerns wheat (Triticum aestivum). As to the kind of experiment: Test A postemergence. Conditions: Triticum aestivum, post-emergence, 240 h, 125 g ai/ha, postemergence; visual injury after approximately 10 d; 0 to 100 scale (0 no effect, 100 complete control); read-out: Plant response rating, Wheat. Put shortly:
as §1

The test system of test [4] is ryegrass, Italian (Italian ryegrass, Lolium multiflorum). The test is described as follows: Test A postemergence. Conditions: Lolium multiflorum, post-emergence, 240 h, 125 g ai/ha, postemergence; visual injury after approximately 10 d; 0 to 100 scale (0 no effect, 100 complete control); read-out: Plant response rating, Ryegrass, Italian. Put shortly: as §1
Test [5] concerns pigweed (Amaranthus retroflexus). The test is described as follows: Test A postemergence. The note with it: Amaranthus retroflexus, post-emergence, 240 h, 125 g ai/ha, postemergence; visual injury after approximately 10 d; 0 to 100 scale (0 no effect, 100 complete control); read-out: Plant response rating, Pigweed. Put shortly:
as §1

The test system of test [6] is ragweed (common ragweed, Ambrosia elatior). As to the kind of experiment: Test A postemergence. The note with it: Ambrosia artemisiifolia, post-emergence, 240 h, 125 g ai/ha, postemergence; visual injury after approximately 10 d; 0 to 100 scale (0 no effect, 100 complete control); read-out: Plant response rating, Ragweed. Put shortly: as §1
For test [7], the system named is Kochia (Kochia scoparia). The test is described as follows: Test A postemergence. Conditions: Bassia scoparia, post-emergence, 240 h, 125 g ai/ha, postemergence; visual injury after approximately 10 d; 0 to 100 scale (0 no effect, 100 complete control); read-out: Plant response rating, Kochia. Put shortly:
as §1

The subject of test [8] is corn (Zea mays). As to the kind of experiment: Test A postemergence. The note with it: Zea mays, post-emergence, 240 h, 125 g ai/ha, postemergence; visual injury after approximately 10 d; 0 to 100 scale (0 no effect, 100 complete control). Put shortly:
as §1

In test [9] the test system is giant foxtail (Setaria faberii). The test is described as follows: Test A postemergence. The note with it: Setaria faberi, post-emergence, 240 h, 125 g ai/ha, postemergence; visual injury after approximately 10 d; 0 to 100 scale (0 no effect, 100 complete control); read-out: Plant response rating, Foxtail, Giant. An outline of the steps:
as §1

The test system of test [10] is barnyardgrass (Echinochloa crus-galli). The test is described as follows: Test A postemergence. Conditions: Echinochloa crus-galli, post-emergence, 240 h, 125 g ai/ha, postemergence; visual injury after approximately 10 d; 0 to 100 scale (0 no effect, 100 complete control); read-out: Plant response rating, Barnyardgrass. An outline of the steps: as §1
The subject of test [11] is ryegrass, Italian (Italian ryegrass, Lolium multiflorum). The test is described as follows: Test A preemergence. The note with it: Lolium multiflorum, pre-emergence, 240 h; for pest or weed control at 125 g/ha: 125 g ai/ha, visual rating after approx. 10 d, 0 to 100 scale where 0 is no effect and 100 is complete control; for pest or weed control at 500 g/ha: 500 g ai/ha. An outline of the steps: as §1

For test [12], the system named is pigweed (Amaranthus retroflexus). The test is described as follows: Test A preemergence. Conditions: Amaranthus retroflexus, pre-emergence, 240 h; for pest or weed control at 125 g/ha: 125 g ai/ha, visual rating after approx. 10 d, 0 to 100 scale where 0 is no effect and 100 is complete control; for pest or weed control at 500 g/ha: 500 g ai/ha.
Test [13] deals with ragweed (common ragweed, Ambrosia elatior). As to the kind of experiment: Test A preemergence. The note with it: Ambrosia artemisiifolia, pre-emergence, 240 h; for pest or weed control at 125 g/ha: 125 g ai/ha, visual rating after approx. 10 d, 0 to 100 scale where 0 is no effect and 100 is complete control; for pest or weed control at 500 g/ha: 500 g ai/ha. An outline of the steps: as §1

For test [14], the system named is Kochia (Kochia scoparia). As to the kind of experiment: Test A preemergence. The note with it: Bassia scoparia, pre-emergence, 240 h; for pest or weed control at 125 g/ha: 125 g ai/ha, visual rating after approx. 10 d, 0 to 100 scale where 0 is no effect and 100 is complete control; for pest or weed control at 500 g/ha: 500 g ai/ha. An outline of the steps:
as §1

In test [15] the test system is giant foxtail (Setaria faberii). The test is described as follows: Test A preemergence. Conditions: Setaria faberi, pre-emergence, 240 h; for pest or weed control at 125 g/ha: 125 g ai/ha, visual rating after approx. 10 d, 0 to 100 scale where 0 is no effect and 100 is complete control; for pest or weed control at 500 g/ha: 500 g ai/ha. Put shortly: as §1
Setting [16] is: preemergence, read-out: Plant response rating, Ryegrass, Italian.
[17] abbreviates: preemergence, read-out: Plant response rating, Pigweed.
[18] abbreviates: preemergence, read-out: Plant response rating, Ragweed.
The mark [19] stands for this setting: preemergence, read-out: Plant response rating, Kochia.
Where [20] appears, read: preemergence, read-out: Plant response rating, Foxtail, Giant.

Each structure is given as a SMILES string. Like-named read-outs stand apart in the source and are kept apart here.

With `C=CCN1C[C@H](c2ccc(OC)c(F)c2)[C@@H](C(=O)Nc2cccc(F)c2F)C1=O` [Compound 722], the pest or weed control at 125 g/ha in test [1], in test [2], in [4], in [5], in [6] and in [7] was 0% throughout. In addition, the pest or weed control at 125 g/ha in [9] is 0%; in test [10], 20%; in [11] (setting [16]), 0%; in [12] (setting [17]) it was 0%; in test [13] (setting [18]) it was 0%; in test [14] (setting [19]), 0%. The pest or weed control at 125 g/ha in test [15] (setting [20]) worked out at 50%. In addition, in [3], the plant injury at 125 g/ha is 0%. The compound further returned a Corn plant response rating (crop injury, 0 = no effect, 100 = complete kill) at 125 g/ha in test [8] of 0%. For the same compound, the pest or weed control at 500 g/ha came to 0% in [11] (preemergence, 0 to 100 scale, 0 = no effect, 100 = complete control, read-out: Plant response rating, Ryegrass, Italian); 0% in [12] (preemergence, 0 to 100 scale, 0 = no effect, 100 = complete control, read-out: Plant response rating, Pigweed); 0% in test [13] (preemergence, 0 to 100 scale, 0 = no effect, 100 = complete control, read-out: Plant response rating, Ragweed); 0% in test [14] (preemergence, 0 to 100 scale, 0 = no effect, 100 = complete control, read-out: Plant response rating, Kochia); 80% in test [15] (preemergence, 0 to 100 scale, 0 = no effect, 100 = complete control, read-out: Plant response rating, Foxtail, Giant).

Turning to `CC(F)(F)c1cccc([C@H]2CNC(=O)[C@@H]2C(=O)Nc2ccccc2S(C)(=O)=O)c1` [Compound 780], the pest or weed control at 125 g/ha worked out at 50% in [1]; 50% in test [2]; 0% in test [4]; 0% in test [5]; 0% in test [6]; 30% in test [7]. Moreover, the pest or weed control at 125 g/ha was 60% in test [9]; 60% in test [10]; 0% in test [11] (setting [16]); 0% in [12] (setting [17]); 40% in test [13] (setting [18]); 40% in [14] (setting [19]). The pest or weed control at 125 g/ha in [15] (setting [20]) amounted to 90%. In test [3], the plant injury at 125 g/ha came to 30%. Besides, in test [8], the Corn plant response rating (crop injury, 0 = no effect, 100 = complete kill) at 125 g/ha is 40%. In addition, the pest or weed control at 500 g/ha amounted to 20% in [11] (Preemergence, visual injury vs untreated controls after approximately 10 d, read-out: Ryegrass, Italian plant response rating (0 to 100 scale where 0 is no effect and 100 is complete control)); 50% in [12] (Preemergence, visual injury vs untreated controls after approximately 10 d, read-out: Pigweed plant response rating (0 to 100 scale where 0 is no effect and 100 is complete control)); 70% in test [13] (Preemergence, visual injury vs untreated controls after approximately 10 d, read-out: Ragweed plant response rating (0 to 100 scale where 0 is no effect and 100 is complete control)); 80% in [14] (Preemergence, visual injury vs untreated controls after approximately 10 d, read-out: Kochia plant response rating (0 to 100 scale where 0 is no effect and 100 is complete control)); 90% in test [15] (Preemergence, visual injury vs untreated controls after approximately 10 d, read-out: Foxtail, Giant plant response rating (0 to 100 scale where 0 is no effect and 100 is complete control)).
